The values below are quoted from earlier work in patent US20250179129A1, “ZINC FINGER PEPTIDES, PEPTIDE ARRAYS, AND METHODS OF USE THEREOF” (The Regents of the University of California, priority 2022, published 2025).

The series has as its system single-strand RNA containing a GGU motif.

Turning to “SDGDWICPDKKCGNVNFARRTSCNRCGREKTT (listed as Homo sapiens) [zinc finger in ZRANB2]”, the “affinity for single-strand RNA containing a GGU motif” value was “micromolar”.
